This data set is described as follows: Human HepG2 cell viability assay in 384 well format. Further details: dose 125 nL, time 70.5 hour; concentration not given beside the values. In kind it is toxicity, cell-based. As to conditions: HepG2 cells, read-out: Inhibition.
For `Cc1ccc2c(c1)CN(CC(=O)NCCc1ccc(F)cc1)CC(C)O2` (configuration not stated), the cytotoxicity at 70.5 h is -7.54%.

As for `CCC[C@@H]1CN(c2cncc(C(=O)N3CCOCC3)n2)C[C@H]1N(C)C`, the cytotoxicity at 70.5 h was 32.6%.

For `Fc1cccc(-n2cc(CN3CCCCC3CCn3ccnc3)cn2)c1` (configuration not stated), the cytotoxicity at 70.5 h is 4.66%.

Consider `Cn1nccc1C(=O)N1CCOC(Cc2ccc(F)cc2)C1` (configuration not stated), for which the cytotoxicity at 70.5 h is -3.53%.

For the compound `CNc1ncc(C(=O)N2CCC3(CC2)Nc2ccccc2NC3=O)cn1`, the cytotoxicity at 70.5 h is -0.695%.

As to `O=C1NCC2(CCCN(C(=O)Nc3ccc4occc4c3)CC2)O1` (configuration not stated), the cytotoxicity at 70.5 h is -1.24%.

As to `Cc1nc2[nH]cc(C(=O)N3CCCCC3c3ccc(F)cc3)c(=O)n2n1` (configuration not stated), the cytotoxicity at 70.5 h is 3.11%.

With `COc1ccccc1N1CCN(Cc2nccc(OC)c2OC)CC1=O`, the cytotoxicity at 70.5 h worked out at 7.74%.

As to `OC1(CN2CCc3nnc(Cc4cccnc4)n3CC2)CCCNC1` (configuration not stated), the cytotoxicity at 70.5 h is -4.53%.

`CN(CCO)Cc1nnc(C2CCN(C(=O)c3cccn3C)CC2)n1C`: the cytotoxicity at 70.5 h is -5.93%.

With `CCSc1ccc(C(=O)N2CCC3(CC2)[C@H](O)C[C@@H]3O)s1`, the cytotoxicity at 70.5 h is -12.1%.

Consider `COc1cccc2c1OCC(Cc1cc(C(=O)N3CCCC3)ccn1)C2` (configuration not stated), for which the cytotoxicity at 70.5 h is -16.5%.

For the compound `O=C(Nc1nncs1)N1CCCN(C2CCCC2)CC1`, the cytotoxicity at 70.5 h stood at 18.5%.

Consider `CC(C)c1cc(N2CC[C@H](F)C2)n2nccc2n1`, for which the cytotoxicity at 70.5 h stood at 2.77%.

In the case of `Nc1nccc(-c2cccc3ccnn23)n1`, the cytotoxicity at 70.5 h is -1.89%.

With `COc1ccccc1CCc1nc(CC2CCN(C)CC2)no1`, the cytotoxicity at 70.5 h was -2.87%.

With `CCn1cncc1C1CC(=O)Nc2c1c(C)nn2C` (configuration not stated), the cytotoxicity at 70.5 h is -4.74%.

As to `CCOC(=O)c1n[nH]cc1CN1CCOC(Cc2ccc(OC)cc2)C1` (configuration not stated), the cytotoxicity at 70.5 h is -3.26%.

In the case of `OCCCN1CCc2[nH]nc(C(c3ccccc3)c3ccccc3)c2C1`, the cytotoxicity at 70.5 h is -3.77%.

In the case of `CC(C)c1cc(C(=O)N2CCN(C)[C@@H]3CS(=O)(=O)C[C@@H]32)no1`, the cytotoxicity at 70.5 h was -7.29%.

With `C[C@@H]1CN(C(=O)CCc2cnn(C)c2)CC[C@@]1(O)C1CCOCC1`, the cytotoxicity at 70.5 h worked out at 8.15%.

For `Cc1ccccc1C(CC(=O)NCc1nnc(N)s1)c1ccccc1` (configuration not stated), the cytotoxicity at 70.5 h is -3.82%.

On to `COc1cccc(N2CCN(Cc3ccc4occc4c3)CC2=O)c1`, for which the cytotoxicity at 70.5 h was -12.9%.

Turning to `CC(C)(C(=O)NCC1CCN(Cc2ncc[nH]2)C1)c1ccccc1` (configuration not stated), the cytotoxicity at 70.5 h is -5.7%.

With `COc1ccc2c(CN3CCN(Cc4cccc(F)c4)CC3)n[nH]c2c1`, the cytotoxicity at 70.5 h is -3.1%.

As for `Cc1ccc(N2CCN(C(=O)CCc3ccc(O)cc3)CC2=O)cc1`, the cytotoxicity at 70.5 h is -10.1%.

As to `Cn1cc(CCC(=O)N2C[C@@H]3CC[C@H](C2)N(Cc2ccccn2)C3)cn1`, the cytotoxicity at 70.5 h is -14%.

Regarding `CSCC1CCN(c2nc(N)ncc2C)CC1`, the cytotoxicity at 70.5 h is -9.1%.

Regarding `CCc1oc(C(=O)NCCSc2ncn[nH]2)cc1CN1CCCC1`, the cytotoxicity at 70.5 h was -9.51%.

On to `CC(C)Oc1cc(N2CC[C@H](CO)[C@@H](O)C2)nc(N)n1`, for which the cytotoxicity at 70.5 h was -8.74%.

On to `CCCN1CCC(CC(=O)NCCc2nc(C)cc(C)n2)CC1`, for which the cytotoxicity at 70.5 h was -4.92%.

In the case of `CCn1ncnc1C(C)NC(=O)CC1CCN(C(C)C)CC1` (configuration not stated), the cytotoxicity at 70.5 h was 30%.

For `Cc1ccc(C(C(=O)O)N(C)CCN2CCOCC2)c(F)c1` (configuration not stated), the cytotoxicity at 70.5 h was -9.66%.

In the case of `CCC(NC(=O)C1CCN(C(=O)C2CC2)CC1)c1cn2cccnc2n1` (configuration not stated), the cytotoxicity at 70.5 h was -8.35%.

For the compound `CN1C(=O)[C@H]2CC[C@@H]1CN(C(=O)c1csc(Cc3ccccc3)n1)C2`, the cytotoxicity at 70.5 h was -11.4%.

For the compound `CN(C)S(=O)(=O)N1CCCC(c2nccn2Cc2cccnc2)C1` (configuration not stated), the cytotoxicity at 70.5 h was -4.26%.

Take `O=C(CCCN1CCCCC1)N1CCN(C(=O)c2nc[nH]n2)CC1`: the cytotoxicity at 70.5 h was -3.03%.

Turning to `CN(CCCc1cnn(C)c1)C(=O)C1CCCN(C2CCCC2)C1` (configuration not stated), the cytotoxicity at 70.5 h amounted to 7.47%.

For the compound `CNc1ncc(CN(C)C(=O)c2ccccc2C2CCNC2)cn1` (configuration not stated), the cytotoxicity at 70.5 h is 1.83%.

As to `CN(Cc1ncnn1C1Cc2ccccc2C1)C1CCS(=O)(=O)C1` (configuration not stated), the cytotoxicity at 70.5 h is -2.74%.

Consider `COCC(=O)N1CCCN(C(=O)C2Cc3ccccc3CN2C)CC1` (configuration not stated), for which the cytotoxicity at 70.5 h came out at 11.5%.

As for `Cc1cc(C(F)(F)F)nc(CNC(=O)CCCN2CCCCC2)n1`, the cytotoxicity at 70.5 h was -2.62%.

On to `O=C(c1cc(Cl)ccc1OC1CCN(C2CCCC2)CC1)N1CC(O)C1`, for which the cytotoxicity at 70.5 h was found to be 11.8%.

For the compound `COc1cccc(-n2cc(CN(C)C(=O)c3cc[nH]n3)cn2)c1`, the cytotoxicity at 70.5 h was -6.6%.

For `CNC(=O)CCCNc1cc(C)nc2cc(C)nn12`, the cytotoxicity at 70.5 h came to 5.3%.

Consider `CCC(CO)N(Cc1ccccc1C)Cc1ccccc1C(=O)O` (configuration not stated), for which the cytotoxicity at 70.5 h was -2.15%.

For `Cc1ccc(C#N)c(N2CCC3(CCCN(C4CCOCC4)C3=O)C2)n1` (configuration not stated), the cytotoxicity at 70.5 h is -1.26%.

As to `O=c1[nH]c2cc3c(cc2cc1CN1CCCC1c1ccccn1)OCO3` (configuration not stated), the cytotoxicity at 70.5 h was -4.33%.

Turning to `CC(=O)NC1CCN(c2nc(N(C)C)nc3c2CCCC3)CC1`, the cytotoxicity at 70.5 h was -1.98%.

Consider `c1cc(CN2CCCC2)cc(-n2ccnc2-c2ccncc2)c1`, for which the cytotoxicity at 70.5 h worked out at 0.243%.

Take `COCCN(C)C[C@@H]1CN(c2nc(C)cc(C)n2)C[C@@H]1CO`: the cytotoxicity at 70.5 h was found to be 1.4%.

For `CC(C)S(=O)(=O)N1CCCC(c2cccc(C(=O)O)c2)C1` (configuration not stated), the cytotoxicity at 70.5 h is -10.1%.

With `N[C@@H]1c2ccccc2C2(CCN(C(=O)c3ccc(=O)[nH]c3)CC2)[C@H]1O`, the cytotoxicity at 70.5 h was -6.66%.

On to `Cc1nc(CC2CCN(Cc3ccc(CCC(C)(C)O)cc3)CC2)no1`, for which the cytotoxicity at 70.5 h was found to be 13.1%.

Consider `O=C(O)CNc1cc(-c2cc(C3CC3)ncn2)c2cc[nH]c2n1`, for which the cytotoxicity at 70.5 h was found to be 0.922%.

As for `CN(CCc1cnn(C)c1)C(=O)Cn1c(=O)[nH]c2ccccc21`, the cytotoxicity at 70.5 h is -6.43%.

Take `Cn1cc(Cl)c(CN2CCCC(Cn3cc(CO)nn3)C2)n1` (configuration not stated): the cytotoxicity at 70.5 h is -6.23%.

As to `O=C(O)C1(Cc2ccc(F)cc2)CCCN(Cc2ccncc2)C1` (configuration not stated), the cytotoxicity at 70.5 h was determined as 4.55%.

For the compound `OCCC1CN(c2ncnc3[nH]cnc23)CCN1Cc1ccccc1` (configuration not stated), the cytotoxicity at 70.5 h was -3.48%.

`COCC(c1ccccn1)N(C)C(=O)c1cc(-c2ccc(O)cc2)n[nH]1` (configuration not stated): the cytotoxicity at 70.5 h was -1.31%.

As to `COc1ccccc1-n1cc(C(=O)NCCCn2ccnn2)cn1`, the cytotoxicity at 70.5 h was -8.35%.

In the case of `COc1cccc(OCC2CCCN(C(=O)c3ccc(N)nc3)C2)c1` (configuration not stated), the cytotoxicity at 70.5 h is -11.6%.

`c1cc2c(cc1Cn1cc(C3CCOC3)nn1)OCO2` (configuration not stated): the cytotoxicity at 70.5 h is -16.1%.

`CCn1c(C2CCN(C(=O)COCC(F)(F)C(F)F)CC2)n[nH]c1=O`: the cytotoxicity at 70.5 h is -6.79%.

Turning to `Cc1nc(CC(=O)N2CCC3(CC2)CC(=O)N(CC2CCCO2)C3)cs1` (configuration not stated), the cytotoxicity at 70.5 h was -3.04%.

Turning to `Cc1cccc(OC2CN(C(=O)C3CC(=O)N(C4CC4)C3)C2)c1` (configuration not stated), the cytotoxicity at 70.5 h amounted to 4.04%.

`CCC[C@H]1CN(S(C)(=O)=O)C[C@@H]1NC(=O)c1ccc(COC)cc1`: the cytotoxicity at 70.5 h came out at 0.361%.

For `CCc1ccccc1CN1CC[C@@]2(O)CCN(S(=O)(=O)N(C)C)C[C@H]2C1`, the cytotoxicity at 70.5 h is -3.87%.

As to `Cc1ccc(OCC2CCCN(c3cc(C(N)=O)ccn3)C2)cc1` (configuration not stated), the cytotoxicity at 70.5 h was 4.54%.

Take `CC(C)(CN1CCC2(CCNCC2)CC1)N1CCOCC1`: the cytotoxicity at 70.5 h was -3.64%.

As to `Cc1cc(C)c2[nH]c(C(=O)NCCN3CCNC3=O)c(C)c2c1`, the cytotoxicity at 70.5 h was -5.43%.

With `CC(=O)N1CCN(Cc2ccc3c(c2)OCCO3)CC(O)C1` (configuration not stated), the cytotoxicity at 70.5 h is -10.7%.

Take `Cn1cc(CN(C/C=C/c2ccccc2)C2CC2)cn1`: the cytotoxicity at 70.5 h is -8.38%.

Regarding `Cc1c(-c2ccccc2)ncn1CC(c1cccnc1)N1CCOCC1` (configuration not stated), the cytotoxicity at 70.5 h is -2.03%.

Consider `COc1cc(CN2CC[C@@H](N3CCCCCC3)[C@H](O)C2)cc(Cl)c1OC`, for which the cytotoxicity at 70.5 h is -4.33%.

Consider `COC[C@]1(O)CCN(C2CCN(c3ccc(F)c(F)c3)CC2)CC1(C)C`, for which the cytotoxicity at 70.5 h amounted to 22.6%.

Take `Cc1ccc(CN2C(=O)OCC2CO)c2ccccc12` (configuration not stated): the cytotoxicity at 70.5 h was -6.41%.

For the compound `CN(Cc1nc2ccccc2c(=O)[nH]1)C[C@@H]1CCCN2CCCC[C@H]12`, the cytotoxicity at 70.5 h was -2.89%.

Take `O=C(NCc1noc(C2CCCO2)n1)c1cn2ccsc2n1` (configuration not stated): the cytotoxicity at 70.5 h is -9.32%.

As to `CCC[C@H]1CN(C(=O)Cn2ccccc2=O)C[C@@H]1NS(C)(=O)=O`, the cytotoxicity at 70.5 h is -1.15%.

Consider `CCN(Cc1ccncc1)Cc1c[nH]nc1-c1ccc(F)cc1`, for which the cytotoxicity at 70.5 h is -6.51%.

For `CN(C)C(=O)CN1CCCN(CC2CCOc3ccccc3C2)CC1` (configuration not stated), the cytotoxicity at 70.5 h is -11.2%.

Consider `CN1CCN(C)C2(CCN(Cc3ccc(C4CCCCO4)o3)CC2)C1` (configuration not stated), for which the cytotoxicity at 70.5 h was -1.75%.

Take `CCC(C(=O)NCc1csc(N2CCOCC2)n1)n1cccn1` (configuration not stated): the cytotoxicity at 70.5 h is -4.73%.

For the compound `CCCc1nnc(C(=O)N(C)Cc2cnc3ccccn23)o1`, the cytotoxicity at 70.5 h is 33.7%.

Take `CC(O)CCn1ccc2[nH]c(=O)c(C#N)cc2c1=O` (configuration not stated): the cytotoxicity at 70.5 h is 4.38%.

For `C[C@@H]1CN(CCOc2ccc(Cl)cc2)CC[C@@]1(O)C1CCOCC1`, the cytotoxicity at 70.5 h is 7.29%.

Regarding `CCCC1(CO)CCCN(C(=O)CNC(N)=O)C1` (configuration not stated), the cytotoxicity at 70.5 h was -28.7%.

Consider `Cn1c(-c2ccccc2Cl)nc2cc(C(=O)NCCOCCO)cnc21`, for which the cytotoxicity at 70.5 h was -6.61%.

`COc1ccc(Cl)cc1C(C(=O)O)N1CCSCC1` (configuration not stated): the cytotoxicity at 70.5 h was -3.65%.

As to `CC(=O)N[C@@H]1CN(C(=O)c2ccc[nH]2)C[C@H]1c1ccc(C)o1`, the cytotoxicity at 70.5 h stood at 0.0626%.

Take `Cc1nc(C(C)N(C)Cc2nc(CCC(C)C)no2)c(C)s1` (configuration not stated): the cytotoxicity at 70.5 h amounted to 0.293%.

`Cc1ccccc1N1CCN(c2ccncn2)C(C)C1` (configuration not stated): the cytotoxicity at 70.5 h is -2.86%.

For the compound `COCC(NC(=O)c1cc(NC(C)=O)ccc1Cl)c1ccnn1C` (configuration not stated), the cytotoxicity at 70.5 h was -1.93%.

As to `OCc1ccc(CN2CCC(n3cc(-c4ccc(F)cc4)nn3)CC2)o1`, the cytotoxicity at 70.5 h is -8.09%.

Consider `COc1ccc(CN2CCN(CC3CC3)[C@@H]3CS(=O)(=O)C[C@@H]32)cc1O`, for which the cytotoxicity at 70.5 h was -2.14%.

Consider `CN(Cc1ccco1)C(=O)[C@@]12CNC[C@@H]1CN(C1CCCC1)C2`, for which the cytotoxicity at 70.5 h was -23%.

These data come from ChEMBL document CHEMBL3507680, “University of Dundee, Gates Library screen for HepG2 cell viability”.
